# Reference: patent publication US8436043B2 (Takeda Pharmaceutical Company Limited, priority 2008, dated 2013)
# Molecular target: T1, human glucagon receptor (Homo sapiens, UniProt P47871)
# T1 construct: made in house; host or cells: FreeStyle CHO cells, transient transfection with pMSRαneo/hGCGR; membrane fraction (35,000 rpm pellet)
# Assay: Glucagon binding inhibitory activity ([125I]-glucagon binding to glucagon receptor membrane protein)
# Settings: human glucagon receptor membrane protein, [125I]-glucagon, 90 min room temperature
# Outline: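 Receptor source was a membrane fraction of transiently transfected CHO cells bearing human receptor; 90 min room-temperature binding, filtration harvest, scintillation counting.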
# T1 sequence (P47871 26-477): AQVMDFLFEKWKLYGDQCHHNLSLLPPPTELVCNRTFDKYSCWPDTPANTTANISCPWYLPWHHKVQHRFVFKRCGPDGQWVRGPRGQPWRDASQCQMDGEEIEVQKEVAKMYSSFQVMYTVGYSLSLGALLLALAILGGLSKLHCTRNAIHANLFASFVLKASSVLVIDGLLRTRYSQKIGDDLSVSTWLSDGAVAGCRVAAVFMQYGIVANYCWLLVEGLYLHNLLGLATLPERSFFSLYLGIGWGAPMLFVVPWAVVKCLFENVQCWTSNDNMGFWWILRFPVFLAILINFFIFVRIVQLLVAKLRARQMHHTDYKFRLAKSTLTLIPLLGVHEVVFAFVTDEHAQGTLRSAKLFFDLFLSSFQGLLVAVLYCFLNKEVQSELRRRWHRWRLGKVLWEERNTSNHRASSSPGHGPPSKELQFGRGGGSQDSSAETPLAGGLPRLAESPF
row,IC50,SMILES
1,640 nM,"COCc1c(C(Nc2ccc(C(=O)N(C)CCC(=O)O)cc2)C2CCCCC2)oc2ccc(F)cc12 (single isomer, unassigned) [Example A49, 3-[{[4-({cyclohexyl[5-fluoro-3-(methoxymethyl)-1-benzofuran-2-yl]methyl}amino)phenyl]carbonyl}(methyl)amino]propanoic acid]"

# Same assay, conditions: test compound 10 μM; 0.4% DMSO = 0%, non-labeled glucagon 1 μM = 100%
row,inhibitory rate (%) at 10 μM,SMILES
1,85%,Cc1c(C(Nc2ccc(C(=O)N(C)CCC(=O)O)nc2)C2CCCCC2)oc2ccc(F)cc12 (centres unmarked) [Example A57]
2,52%,"Cc1c(C(Nc2ccc(C(=O)N(C)CCC(=O)O)cn2)C2CCCCC2)oc2ccc(F)cc12 (centres unmarked) [Example A54, 3-{[(6-{[cyclohexyl(5-fluoro-3-methyl-1-benzofuran-2-yl)methyl]amino}pyridin-3-yl)carbonyl](methyl)amino}propanoic acid]"

# Same assay, conditions: test compound 10 μM; 0.4% DMSO = 0%, non-labeled glucagon 1 μM = 100%; read-out: inhibitory rate (%) at 10 μM
row,inhibition at 10 µM,SMILES
1,80%,"Cc1c(C(Nc2ccc(C(=O)NCCC(=O)O)cc2)C2CCCCC2)sc2ccccc12 (centres unmarked) [Example A10, 3-{[(4-{[cyclohexyl(3-methyl-1-benzothiophen-2-yl)methyl]amino}phenyl)carbonyl]amino}propanoic acid]"
2,74%,"CCCCCCC(Nc1ccc(C(=O)N(C)CCC(=O)O)cc1)c1cc2cc(Cl)ccc2n1-c1cccc(C(F)(F)F)c1 (centres unmarked) [Example A107, 3-[({4-[(1-{5-chloro-1-[3-(trifluoromethyl)phenyl]-1H-indol-2-yl}heptyl)amino]phenyl}carbonyl)(methyl)amino]propanoic acid]"
3,64%,"CCc1oc2ccccc2c1C(Nc1ccc(C(=O)N(C)CCC(=O)O)cc1)C1CCCCC1 (centres unmarked) [Example A26, 3-{[(4-{[cyclohexyl(2-ethyl-1-benzofuran-3-yl)methyl]amino}phenyl)carbonyl](methyl)amino}propanoic acid]"
4,75%,"Cc1c(C(Nc2ccc(C(=O)NCCC(=O)O)cc2)C2CCCCC2)sc2cnccc12 (centres unmarked) [Example A137, 3-{[(4-{[cyclohexyl(3-methylthieno[2,3-c]pyridin-2-yl)methyl]amino}phenyl)carbonyl]amino}propanoic acid]"
5,90%,"Cc1c(C(Nc2ccc(C(=O)N(C)CCC(=O)O)cc2)C2CCCCC2)oc2ccc(OCc3ccnc(F)c3)cc12 (centres unmarked) [Example A168, 3-[({4-[(cyclohexyl{5-[(2-fluoropyridin-4-yl)methoxy]-3-methyl-1-benzofuran-2-yl}methyl)amino]phenyl}carbonyl)(methyl)amino]propanoic acid]"
6,86%,"COCc1c(C(Nc2ccc(C(=O)N(C)CCC(=O)O)cc2)C2CCCCC2)oc2ccc(F)cc12 (single isomer, unassigned) [Example A49, 3-[{[4-({cyclohexyl[5-fluoro-3-(methoxymethyl)-1-benzofuran-2-yl]methyl}amino)phenyl]carbonyl}(methyl)amino]propanoic acid]"
7,62%,"COc1cccc2cc(C(Nc3ccc(C(=O)N(C)CCC(=O)O)cc3)C3CCCCC3)oc12 (centres unmarked) [Example A21, 3-{[(4-{[cyclohexyl(7-methoxy-1-benzofuran-2-yl)methyl]amino}phenyl)carbonyl](methyl)amino}propanoic acid]"
8,72%,"O=C(O)CCNC(=O)c1ccc(NC(c2cn(-c3ccccc3)nc2CCc2ccccc2)C2CCCCC2)cc1 (centres unmarked) [Example 15, 3-({[4-({cyclohexyl[1-phenyl-3-(2-phenylethyl)-1H-pyrazol-4-yl]methyl}amino)phenyl]carbonyl}amino)propanoic acid]"
9,71%,"O=C(O)CCNC(=O)c1ccc(NC(c2nn(C3CCCCC3)c3ccccc23)C2CCCCC2)cc1 (centres unmarked) [Example A19, 3-{[(4-{[cyclohexyl(1-cyclohexyl-1H-indazol-3-yl)methyl]amino}phenyl)carbonyl]amino}propanoic acid]"
10,89%,"Cc1c(C(Nc2ccc(C(=O)N(C)CCC(=O)O)cc2)C2CCCCC2)oc2ccc(Oc3ccccn3)cc12 (centres unmarked) [Example A200, 3-[{[4-({cyclohexyl[3-methyl-5-(pyridin-2-yloxy)-1-benzofuran-2-yl]methyl}amino)phenyl]carbonyl}(methyl)amino]propanoic acid]"
11,85%,"Cc1c(C(Nc2ccc(C(=O)N(C)CCC(=O)O)cc2)C2CCCCC2)sc2ccccc12 (centres unmarked) [Example A13, 3-{[(4-{[cyclohexyl(3-methyl-1-benzothiophen-2-yl)methyl]amino}phenyl)carbonyl](methyl)amino}propanoic acid]"
12,90%,"Cc1c(C(Nc2ccc(C(=O)N(C)CCC(=O)O)cc2)C2CCCCC2)oc2ccc(OCC3CCCO3)cc12 (centres unmarked) [Example A209, 3-[{[4-({cyclohexyl[3-methyl-5-(tetrahydrofuran-2-ylmethoxy)-1-benzofuran-2-yl]methyl}amino)phenyl]carbonyl}(methyl)amino]propanoic acid]"
13,88%,"COc1ncccc1-c1ccc2oc(C(Nc3ccc(C(=O)N(C)CCC(=O)O)cc3)C(C)C)c(C)c2c1 (centres unmarked) [Example A183, 3-[{[4-({1-[5-(2-methoxypyridin-3-yl)-3-methyl-1-benzofuran-2-yl]-2-methylpropyl}amino)phenyl]carbonyl}(methyl)amino]propanoic acid]"
14,87%,"Cc1c(C(Nc2ccc(C(=O)NCCC(=O)O)cc2)C2CCCCC2)oc2c(F)cc(F)cc12 (centres unmarked) [Example A163, 3-{[(4-{[cyclohexyl(5,7-difluoro-3-methyl-1-benzofuran-2-yl)methyl]amino}phenyl)carbonyl]amino}propanoic acid]"
15,75%,"Cc1c(C(C)Nc2ccc(C(=O)N(C)CCC(=O)O)cc2)oc2ccc(OCc3ccccc3)cc12 (centres unmarked) [Example A166, 3-[{[4-({1-[5-(benzyloxy)-3-methyl-1-benzofuran-2-yl]ethyl}amino)phenyl]carbonyl}(methyl)amino]propanoic acid]"
16,95%,"COc1ccc(-c2ccc3oc(C(Nc4ccc(C(=O)N(C)CCC(=O)O)cc4)C(C)C)c(C)c3c2)cn1 (centres unmarked) [Example A182, 3-[{[4-({1-[5-(6-methoxypyridin-3-yl)-3-methyl-1-benzofuran-2-yl]-2-methylpropyl}amino)phenyl]carbonyl}(methyl)amino]propanoic acid]"
17,75%,"COCc1nn(-c2ccc(OC)cc2)cc1C(Nc1ccc(C(=O)NCCC(=O)O)cc1)C1CCCCC1 (centres unmarked) [Example 35, 3-({[4-({cyclohexyl[3-(methoxymethyl)-1-(4-methoxyphenyl)-1H-pyrazol-4-yl]methyl}amino)phenyl]carbonyl}amino)propanoic acid]"
18,77%,"CCc1nn(-c2ccc(C(F)(F)F)cn2)cc1C(Nc1ccc(C(=O)N(C)CCC(=O)O)cc1)C1CCCCC1 (centres unmarked) [Example 4, 3-[({4-[(cyclohexyl{3-ethyl-1-[5-(trifluoromethyl)pyridin-2-yl]-1H-pyrazol-4-yl}methyl)amino]phenyl}carbonyl)(methyl)amino]propanoic acid]"
19,78%,"CCOc1cccc(-n2cc(C(Nc3ccc(C(=O)N(C)CCC(=O)O)cc3)C3CCCCC3)c(CC)n2)c1 (centres unmarked) [Example 83, 3-[{[4-({cyclohexyl[1-(3-ethoxyphenyl)-3-ethyl-1H-pyrazol-4-yl]methyl}amino)phenyl]carbonyl}(methyl)amino]propanoic acid]"
20,77%,"Cc1ccc2oc(C(Nc3ccc(C(=O)NCCC(=O)O)cc3)C3CCCCC3)c(C)c2c1 (centres unmarked) [Example A90, 3-{[(4-{[cyclohexyl(3,5-dimethyl-1-benzofuran-2-yl)methyl]amino}phenyl)carbonyl]amino}propanoic acid]"
21,68%,"Cc1c(C(Nc2ccc(C(=O)N(C)CCC(=O)O)cc2)C(C)C)oc2cccc(F)c12 (centres unmarked) [Example A175, 3-{[(4-{[1-(4-fluoro-3-methyl-1-benzofuran-2-yl)-2-methylpropyl]amino}phenyl)carbonyl](methyl)amino}propanoic acid]"
22,71%,"COc1ccc(-n2cc(C(Nc3ccc(C(=O)NCCC(=O)O)cc3)C3CCCCC3)c(C3CC3)n2)cc1 (centres unmarked) [Example 46, 3-({[4-({cyclohexyl[3-cyclopropyl-1-(4-methoxyphenyl)-1H-pyrazol-4-yl]methyl}amino)phenyl]carbonyl}amino)propanoic acid]"
23,78%,"Cc1sc2ccccc2c1C(Nc1ccc(C(=O)NCCC(=O)O)cc1)C1CCCCC1 (centres unmarked) [Example A8, 3-{[(4-{[cyclohexyl(2-methyl-1-benzothiophen-3-yl)methyl]amino}phenyl)carbonyl]amino}propanoic acid]"
24,64%,"Cc1c(C(Nc2ccc(C(=O)N(C)CCC(=O)O)cn2)C2CCCCC2)oc2ccc(F)cc12 (centres unmarked) [Example A52, 3-{[(6-{[cyclohexyl(5-fluoro-3-methyl-1-benzofuran-2-yl)methyl]amino}pyridin-3-yl)carbonyl](methyl)amino}propanoic acid]"
25,86%,"Cc1c(C(Nc2ccc(C(=O)NCCC(=O)O)cc2)C2CCCCC2)oc2ccc(OCc3ccc(Cl)nc3)cc12 (centres unmarked) [Example A169, 3-{[(4-{[{5-[(6-chloropyridin-3-yl)methoxy]-3-methyl-1-benzofuran-2-yl}(cyclohexyl)methyl]amino}phenyl)carbonyl]amino}propanoic acid]"
26,76%,"Cc1c(C(Nc2ccc(C(=O)N(C)CCC(=O)O)cc2)C2CCCCC2)sc2ccncc12 (centres unmarked) [Example A139, 3-{[(4-{[cyclohexyl(3-methylthieno[3,2-c]pyridin-2-yl)methyl]amino}phenyl)carbonyl](methyl)amino}propanoic acid]"
27,70%,"COc1ccc2oc(C(CC(C)C)Nc3ccc(C(=O)N(C)CCC(=O)O)cc3)c(C)c2c1 (centres unmarked) [Example A93, 3-{[(4-{[1-(5-methoxy-3-methyl-1-benzofuran-2-yl)-3-methylbutyl]amino}phenyl)carbonyl](methyl)amino}propanoic acid]"
28,71%,"COCCCCC(Nc1ccc(C(=O)NCCC(=O)O)cc1)c1oc2ccc(OC)cc2c1C (centres unmarked) [Example A123, 3-{[(4-{[5-methoxy-1-(5-methoxy-3-methyl-1-benzofuran-2-yl)pentyl]amino}phenyl)carbonyl]amino}propanoic acid]"
29,74%,"CCc1nn(-c2ccc(C(F)(F)F)cn2)cc1C(Nc1ccc(C(=O)NCCC(=O)O)cc1)C1CCCCC1 (centres unmarked) [Example 3, 3-[({4-[(cyclohexyl{3-ethyl-1-[5-(trifluoromethyl)pyridin-2-yl]-1H-pyrazol-4-yl}methyl)amino]phenyl}carbonyl)amino]propanoic acid]"
